# In the kinase profiling compilation of Christmann-Franck et al. (2016):
# Assays:
# Experiment in all cases: radiometric filter-binding kinase assay
# [1] = biological target: MYLK (human) (UniProt Q15746); details: ATP 100 µM
# [2] = biological target: LCK (human) (UniProt P06239); details: ATP 100 µM
# [3] = biological target: CSK (human) (UniProt P41240); details: ATP 100 µM
# [4] = tested on: MAP2K1 (rabbit); details: ATP 100 µM, accession and sequence are those of the human protein
# [5] = biological target: MAPKAPK2 (human) (UniProt P49137); details: ATP 100 µM
# [6] = biological target: MAPK14 (human) (UniProt Q16539); details: ATP 100 µM
# [7] = biological target: CHEK1 (human) (UniProt O14757); details: ATP 100 µM
# [8] = biological target: MYLK2 (human) (UniProt Q9H1R3); details: ATP 100 µM
# [9] = biological target: MAPKAPK5 (human) (UniProt Q8IW41); details: ATP 100 µM
# [10] = tested on: MAPK1 (mouse); details: ATP 100 µM, accession and sequence are those of the human protein
# [11] = biological target: CSNK2A1 or CSNK2A2 (human) (UniProt P19784+P68400); details: ATP 100 µM
# [12] = biological target: GSK3B (human) (UniProt P49841); details: ATP 100 µM
# [13] = biological target: MAPK13 (human) (UniProt O15264); details: ATP 100 µM
# [14] = tested on: PHKG1 or PHKG2 (rabbit); details: ATP 100 µM, accession and sequence are those of the human protein
# [15] = biological target: MAPK12 (human) (UniProt P53778); details: ATP 100 µM
# [16] = tested on: RPS6KA1 (rat); details: ATP 100 µM, accession and sequence are those of the human protein
# [17] = tested on: ROCK2 (rat); details: ATP 100 µM, accession and sequence are those of the human protein
# [18] = biological target: MAPK11 (human) (UniProt Q15759); details: ATP 100 µM
# [19] = tested on: SGK1 (human), O00141 [S422D]; details: ATP 100 µM
# [20] = biological target: RPS6KA5 KD1 KD2 (human) (UniProt O75582); details: ATP 100 µM
# [21] = biological target: CDK2 CCNA2 (human) (UniProt P24941+P20248); details: ATP 100 µM
# [22] = tested on: DYRK1A (rat); details: ATP 100 µM, accession and sequence are those of the human protein
# [23] = biological target: PDPK1 (human) (UniProt O15530); details: ATP 100 µM
# [24] = biological target: AKT1 (human) (UniProt P31749); details: ATP 100 µM
# [25] = biological target: MAPK8 (human) (UniProt P45983); details: ATP 100 µM
# [26] = tested on: RPS6KB1 (human), P23443 [T412E]; details: ATP 100 µM
# [27] = tested on: PRKAA1 or PRKAA2 (rat); details: ATP 100 µM, accession and sequence are those of the human protein
# [28] = tested on: CSNK1A1 (rat); details: ATP 100 µM, accession and sequence are those of the human protein
# [29] = biological target: PRKCA (human) (UniProt P17252); details: ATP 100 µM
# [30] = tested on: PRKACA or PRKACB (cow); details: accession and sequence are those of the human protein
# [31] = biological target: PRKG1 (human) (UniProt Q13976); details: compound 10.0 µM; ATP 100 µM
# Sequence of SGK1 (human), O00141 [S422D] (O00141 whole entry S422D, looked up): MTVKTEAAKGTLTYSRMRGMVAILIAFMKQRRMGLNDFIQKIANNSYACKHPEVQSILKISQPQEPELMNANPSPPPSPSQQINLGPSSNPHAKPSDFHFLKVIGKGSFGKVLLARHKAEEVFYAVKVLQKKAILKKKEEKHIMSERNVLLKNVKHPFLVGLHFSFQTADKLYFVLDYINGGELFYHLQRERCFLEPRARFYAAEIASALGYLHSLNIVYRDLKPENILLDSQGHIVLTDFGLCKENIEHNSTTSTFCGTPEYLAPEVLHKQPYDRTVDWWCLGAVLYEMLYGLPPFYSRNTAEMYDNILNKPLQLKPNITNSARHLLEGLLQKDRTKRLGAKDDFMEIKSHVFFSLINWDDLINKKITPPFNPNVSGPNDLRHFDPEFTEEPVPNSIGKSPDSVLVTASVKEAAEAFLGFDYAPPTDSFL
# Sequence of CSK (human) (P41240 whole entry, looked up): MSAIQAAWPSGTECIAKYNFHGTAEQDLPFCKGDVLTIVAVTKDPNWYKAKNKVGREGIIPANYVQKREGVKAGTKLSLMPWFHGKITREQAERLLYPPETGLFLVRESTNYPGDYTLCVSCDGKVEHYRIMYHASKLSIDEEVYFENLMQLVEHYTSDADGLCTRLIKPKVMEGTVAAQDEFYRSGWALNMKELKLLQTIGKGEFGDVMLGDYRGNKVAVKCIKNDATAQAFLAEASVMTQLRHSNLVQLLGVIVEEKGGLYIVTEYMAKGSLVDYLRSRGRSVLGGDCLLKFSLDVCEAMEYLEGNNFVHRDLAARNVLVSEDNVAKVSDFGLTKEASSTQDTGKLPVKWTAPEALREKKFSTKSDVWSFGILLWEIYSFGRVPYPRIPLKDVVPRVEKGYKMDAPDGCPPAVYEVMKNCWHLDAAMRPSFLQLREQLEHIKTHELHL
# Sequence of RPS6KB1 (human), P23443 [T412E] (P23443 whole entry T412E, looked up): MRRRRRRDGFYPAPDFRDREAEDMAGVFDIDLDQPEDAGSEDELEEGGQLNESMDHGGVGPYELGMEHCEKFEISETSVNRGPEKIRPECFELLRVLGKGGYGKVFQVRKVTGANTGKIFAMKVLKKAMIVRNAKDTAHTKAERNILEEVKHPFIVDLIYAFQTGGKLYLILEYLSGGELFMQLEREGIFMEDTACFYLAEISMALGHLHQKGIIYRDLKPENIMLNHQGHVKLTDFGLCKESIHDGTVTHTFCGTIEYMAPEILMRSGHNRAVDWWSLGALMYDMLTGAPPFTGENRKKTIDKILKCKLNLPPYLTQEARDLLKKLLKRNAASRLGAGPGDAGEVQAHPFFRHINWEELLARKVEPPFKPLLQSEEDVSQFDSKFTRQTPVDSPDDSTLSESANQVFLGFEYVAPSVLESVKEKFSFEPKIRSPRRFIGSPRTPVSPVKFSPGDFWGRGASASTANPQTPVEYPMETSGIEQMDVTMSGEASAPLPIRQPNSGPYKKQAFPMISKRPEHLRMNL
# Sequence of MAPK8 (human) (P45983 whole entry, looked up): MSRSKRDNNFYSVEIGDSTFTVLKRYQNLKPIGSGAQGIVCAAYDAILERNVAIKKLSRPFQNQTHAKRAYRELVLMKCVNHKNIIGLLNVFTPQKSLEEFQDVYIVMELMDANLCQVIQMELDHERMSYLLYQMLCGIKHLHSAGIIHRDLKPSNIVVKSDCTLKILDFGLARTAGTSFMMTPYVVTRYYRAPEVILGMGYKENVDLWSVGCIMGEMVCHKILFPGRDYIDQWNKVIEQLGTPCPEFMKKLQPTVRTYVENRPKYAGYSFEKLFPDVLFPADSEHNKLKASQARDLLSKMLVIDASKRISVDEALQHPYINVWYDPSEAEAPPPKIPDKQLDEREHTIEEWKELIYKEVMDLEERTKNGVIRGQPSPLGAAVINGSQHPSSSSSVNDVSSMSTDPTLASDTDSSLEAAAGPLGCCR
# Sequence of CHEK1 (human) (O14757 whole entry, looked up): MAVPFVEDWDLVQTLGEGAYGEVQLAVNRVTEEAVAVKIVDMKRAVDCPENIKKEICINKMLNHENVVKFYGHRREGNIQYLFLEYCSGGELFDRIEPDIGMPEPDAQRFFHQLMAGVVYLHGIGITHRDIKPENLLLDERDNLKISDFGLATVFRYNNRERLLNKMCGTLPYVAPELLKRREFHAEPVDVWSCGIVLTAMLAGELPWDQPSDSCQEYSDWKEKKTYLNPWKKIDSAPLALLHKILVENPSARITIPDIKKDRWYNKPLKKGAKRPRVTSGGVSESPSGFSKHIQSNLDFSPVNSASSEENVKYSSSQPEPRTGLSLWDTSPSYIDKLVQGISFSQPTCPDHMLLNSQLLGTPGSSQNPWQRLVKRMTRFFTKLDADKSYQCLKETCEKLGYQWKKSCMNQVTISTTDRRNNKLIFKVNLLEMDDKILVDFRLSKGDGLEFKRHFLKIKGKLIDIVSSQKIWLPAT
# Sequence of RPS6KA5 KD1 KD2 (human) (O75582 whole entry, looked up): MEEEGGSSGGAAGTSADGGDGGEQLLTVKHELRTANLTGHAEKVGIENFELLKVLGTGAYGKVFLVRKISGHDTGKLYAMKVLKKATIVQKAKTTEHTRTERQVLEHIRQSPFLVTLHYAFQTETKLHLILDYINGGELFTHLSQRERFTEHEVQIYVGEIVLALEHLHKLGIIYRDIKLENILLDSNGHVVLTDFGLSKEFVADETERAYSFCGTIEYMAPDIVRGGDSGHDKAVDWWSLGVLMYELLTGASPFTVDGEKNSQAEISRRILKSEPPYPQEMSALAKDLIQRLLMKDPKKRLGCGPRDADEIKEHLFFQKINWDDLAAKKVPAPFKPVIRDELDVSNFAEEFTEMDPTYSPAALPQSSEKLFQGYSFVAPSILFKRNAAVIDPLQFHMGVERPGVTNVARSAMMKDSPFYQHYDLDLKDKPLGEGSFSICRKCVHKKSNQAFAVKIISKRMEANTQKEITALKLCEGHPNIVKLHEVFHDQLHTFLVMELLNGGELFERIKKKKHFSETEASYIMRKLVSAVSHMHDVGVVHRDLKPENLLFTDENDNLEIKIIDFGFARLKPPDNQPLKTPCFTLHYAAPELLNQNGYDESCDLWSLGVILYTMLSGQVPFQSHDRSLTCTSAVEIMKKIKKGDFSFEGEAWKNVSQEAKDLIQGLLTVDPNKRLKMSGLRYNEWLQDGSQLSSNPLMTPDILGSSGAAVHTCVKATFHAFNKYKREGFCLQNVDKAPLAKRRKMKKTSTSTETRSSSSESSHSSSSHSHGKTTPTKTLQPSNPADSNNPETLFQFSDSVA
# Sequence of PDPK1 (human) (O15530 whole entry, looked up): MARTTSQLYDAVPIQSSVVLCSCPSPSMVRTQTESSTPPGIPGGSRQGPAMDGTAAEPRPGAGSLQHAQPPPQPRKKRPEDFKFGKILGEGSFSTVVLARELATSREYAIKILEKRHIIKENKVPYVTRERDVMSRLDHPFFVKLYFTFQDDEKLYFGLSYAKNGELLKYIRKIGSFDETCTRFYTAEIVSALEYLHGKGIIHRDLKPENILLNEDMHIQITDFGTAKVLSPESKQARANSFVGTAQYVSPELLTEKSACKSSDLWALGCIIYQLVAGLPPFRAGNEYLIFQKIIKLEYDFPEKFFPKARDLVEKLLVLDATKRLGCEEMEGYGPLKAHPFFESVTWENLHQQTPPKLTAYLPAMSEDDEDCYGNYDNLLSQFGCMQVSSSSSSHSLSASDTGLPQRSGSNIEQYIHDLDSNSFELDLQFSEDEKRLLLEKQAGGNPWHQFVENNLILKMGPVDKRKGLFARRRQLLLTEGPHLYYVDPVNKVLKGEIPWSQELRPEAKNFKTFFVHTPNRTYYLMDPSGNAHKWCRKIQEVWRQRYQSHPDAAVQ
# Sequence of MAPKAPK2 (human) (P49137 whole entry, looked up): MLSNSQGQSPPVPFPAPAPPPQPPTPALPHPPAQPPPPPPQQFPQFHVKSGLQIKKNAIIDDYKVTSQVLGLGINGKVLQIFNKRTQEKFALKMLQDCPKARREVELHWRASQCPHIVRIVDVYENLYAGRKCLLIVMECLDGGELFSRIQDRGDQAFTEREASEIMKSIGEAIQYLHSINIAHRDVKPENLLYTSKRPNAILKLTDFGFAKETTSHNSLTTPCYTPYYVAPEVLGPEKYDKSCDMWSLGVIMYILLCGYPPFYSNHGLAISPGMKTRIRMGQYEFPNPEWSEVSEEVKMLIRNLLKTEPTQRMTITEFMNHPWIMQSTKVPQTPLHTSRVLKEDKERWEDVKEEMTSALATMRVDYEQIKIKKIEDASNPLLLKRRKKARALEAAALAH
# Sequence of MAPK12 (human) (P53778 whole entry, looked up): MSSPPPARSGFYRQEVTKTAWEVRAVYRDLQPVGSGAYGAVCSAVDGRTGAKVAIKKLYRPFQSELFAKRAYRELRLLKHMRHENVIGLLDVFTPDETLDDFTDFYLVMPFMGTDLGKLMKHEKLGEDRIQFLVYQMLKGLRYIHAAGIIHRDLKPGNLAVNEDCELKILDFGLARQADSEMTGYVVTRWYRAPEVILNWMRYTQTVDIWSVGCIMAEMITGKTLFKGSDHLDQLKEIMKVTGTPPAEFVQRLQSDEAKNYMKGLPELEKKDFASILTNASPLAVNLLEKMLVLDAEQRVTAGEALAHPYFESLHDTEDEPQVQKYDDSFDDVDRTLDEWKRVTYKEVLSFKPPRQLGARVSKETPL
# Sequence of MAPK11 (human) (Q15759 whole entry, looked up): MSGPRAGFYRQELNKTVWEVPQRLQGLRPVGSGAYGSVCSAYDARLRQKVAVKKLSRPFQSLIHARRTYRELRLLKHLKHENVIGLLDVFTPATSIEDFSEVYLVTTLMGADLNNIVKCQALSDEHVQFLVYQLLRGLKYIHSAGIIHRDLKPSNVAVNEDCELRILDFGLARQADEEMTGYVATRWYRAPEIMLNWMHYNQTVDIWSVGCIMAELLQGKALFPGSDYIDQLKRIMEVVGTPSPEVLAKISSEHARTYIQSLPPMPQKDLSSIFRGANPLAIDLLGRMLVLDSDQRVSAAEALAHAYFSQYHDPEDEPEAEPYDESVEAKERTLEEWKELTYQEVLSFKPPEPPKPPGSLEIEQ
smiles,measurement,setting,value
O=S(=O)(c1cccc2c(I)cccc12)N1CCCNCC1,residual activity,[1]; compound 20.0 µM,10%
same,residual activity,[2]; compound 20.0 µM,87%
same,residual activity,[3]; compound 20.0 µM,94%
same,residual activity,[4]; compound 20.0 µM,102%
same,residual activity,[5]; compound 20.0 µM,93%
same,residual activity,[6]; compound 20.0 µM,100%
same,residual activity,[7]; compound 20.0 µM,94%
same,residual activity,[8]; compound 20.0 µM,63%
same,residual activity,[9]; compound 20.0 µM,78%
same,residual activity,[10]; compound 20.0 µM,85%
same,residual activity,[11]; compound 20.0 µM,83%
same,residual activity,[12]; compound 20.0 µM,107%
same,residual activity,[13]; compound 20.0 µM,75%
same,residual activity,[14]; compound 20.0 µM,85%
same,residual activity,[15]; compound 20.0 µM,95%
same,residual activity,[16]; compound 20.0 µM,99%
same,residual activity,[17]; compound 20.0 µM,74%
same,residual activity,[18]; compound 20.0 µM,89%
same,residual activity,[19]; compound 20.0 µM,101%
same,residual activity,[20]; compound 20.0 µM,59%
same,residual activity,[21]; compound 20.0 µM,73%
same,residual activity,[22]; compound 20.0 µM,66%
same,residual activity,[23]; compound 20.0 µM,107%
same,residual activity,[24]; compound 20.0 µM,88%
same,residual activity,[25]; compound 20.0 µM,97%
same,residual activity,[26]; compound 20.0 µM,74%
same,residual activity,[27]; compound 20.0 µM,82%
same,residual activity,[28]; compound 20.0 µM,106%
same,residual activity,[29]; compound 20.0 µM,85%
same,residual activity,[30]; compound 20.0 µM,85%
COC(=O)[C@@]1(OC)C[C@@H]2O[C@]1(C)n1c3ccccc3c3c4c(c5c6ccccc6n2c5c31)C(=O)N(C)C4,residual activity,[31],109%
same,residual activity,[2]; compound 10.0 µM,94%
same,residual activity,[3]; compound 10.0 µM,93%
same,residual activity,[4]; compound 10.0 µM,99%
same,residual activity,[5]; compound 10.0 µM,71%
same,residual activity,[6]; compound 10.0 µM,102%
same,residual activity,[7]; compound 10.0 µM,93%
same,residual activity,[9]; compound 10.0 µM,83%
same,residual activity,[10]; compound 10.0 µM,106%
same,residual activity,[11]; compound 10.0 µM,98%
same,residual activity,[12]; compound 10.0 µM,52%
same,residual activity,[13]; compound 10.0 µM,105%
same,residual activity,[14]; compound 10.0 µM,99%
same,residual activity,[15]; compound 10.0 µM,103%
same,residual activity,[16]; compound 10.0 µM,105%
same,residual activity,[17]; compound 10.0 µM,97%
same,residual activity,[18]; compound 10.0 µM,100%
same,residual activity,[19]; compound 10.0 µM,72%
same,residual activity,[20]; compound 10.0 µM,74%
same,residual activity,[21]; compound 10.0 µM,94%
same,residual activity,[22]; compound 10.0 µM,112%
same,residual activity,[23]; compound 10.0 µM,114%
same,residual activity,[24]; compound 10.0 µM,83%
same,residual activity,[25]; compound 10.0 µM,99%
same,residual activity,[26]; compound 10.0 µM,90%
same,residual activity,[27]; compound 10.0 µM,90%
same,residual activity,[28]; compound 10.0 µM,83%
same,residual activity,[29]; compound 10.0 µM,102%
same,residual activity,[30]; compound 10.0 µM,102%
O=S(=O)(c1cccc2c(Cl)cccc12)N1CCCNCC1,residual activity,[1]; compound 100.0 µM,25%
same,residual activity,[2]; compound 100.0 µM,116%
same,residual activity,[3]; compound 100.0 µM,96%
same,residual activity,[4]; compound 100.0 µM,95%
same,residual activity,[5]; compound 100.0 µM,106%
same,residual activity,[6]; compound 100.0 µM,94%
same,residual activity,[7]; compound 100.0 µM,103%
same,residual activity,[8]; compound 100.0 µM,54%
same,residual activity,[9]; compound 100.0 µM,91%
same,residual activity,[10]; compound 100.0 µM,101%
same,residual activity,[11]; compound 100.0 µM,69%
same,residual activity,[12]; compound 100.0 µM,107%
same,residual activity,[13]; compound 100.0 µM,86%
same,residual activity,[14]; compound 100.0 µM,79%
same,residual activity,[15]; compound 100.0 µM,98%
same,residual activity,[16]; compound 100.0 µM,44%
same,residual activity,[17]; compound 100.0 µM,23%
same,residual activity,[18]; compound 100.0 µM,98%
same,residual activity,[19]; compound 100.0 µM,84%
same,residual activity,[20]; compound 100.0 µM,14%
same,residual activity,[21]; compound 100.0 µM,75%
same,residual activity,[22]; compound 100.0 µM,38%
same,residual activity,[23]; compound 100.0 µM,113%
same,residual activity,[24]; compound 100.0 µM,76%
same,residual activity,[25]; compound 100.0 µM,102%
same,residual activity,[26]; compound 100.0 µM,27%
same,residual activity,[27]; compound 100.0 µM,61%
same,residual activity,[28]; compound 100.0 µM,103%
same,residual activity,[29]; compound 100.0 µM,80%
same,residual activity,[30]; compound 100.0 µM,71%
